Source: ChEMBL document CHEMBL4368907 (J Med Chem, 2019)
pEC50, pIC50: −log10 of the molar value. Numbered stars: 1 amine (or outer) side, 2 acyl side, 3 side chain; on linkers, the order of the positions; unused ones are H or OH. Square brackets hold non-standard residues; d marks the D form. Peptide text beside a SMILES is read from it. * marks the point of attachment. Phe(4-CH2SO3H) = N[C@@H](Cc1ccc(CS(=O)(=O)O)cc1)C(=O)O; C18 diacid = O=C(O)CCCCCCCCCCCCCCCCC(=O)*; γGlu = O=C(O)[C@H](CCC(=O)[*:2])N[*:1]; βAsp = O=C(O)[C@H](CC(=O)[*:2])N[*:1]; NMeF = CN[C@@H](Cc1ccccc1)C(=O)O; dNMeD = CN[C@H](CC(=O)O)C(=O)O; Nle = CCCC[C@H](N)C(=O)O; AEEA = NCCOCCOCC(=O)O

Columns and labels:
[1] = Chemical stability of the compound in sodium phosphate buffer assessed as loss of purity 0.5 mM at pH 7.4 at 37 degC after 1 week by UHLPC-UV analysis; format: physicochemical; settings: read-out: Drug degradation
[2] = Chemical stability of the compound in sodium phosphate buffer assessed as purity 0.5 mM at pH 2.2 at 37 degC after 1 week by UHLPC-UV analysis; format: physicochemical; settings: read-out: Stability
Sus scrofa [3] = assay: Anti-obesity activity in lean Landrace Yorkshire Duroc pig assessed as food intake at 30 nmol/kg, sc measured up to 24 hrs post dose (reference value: 1.8 to 2.1 kg); format: functional
[4] = target: T1, Cholecystokinin receptor type A (Homo sapiens, UniProt P32238); assay: Agonist activity at human CCK1R expressed in human 1321N1 cells assessed as IP1 accumulation after 1 hr by HTRF assay; format: functional, cell-based
T1 sequence (P32238 whole entry): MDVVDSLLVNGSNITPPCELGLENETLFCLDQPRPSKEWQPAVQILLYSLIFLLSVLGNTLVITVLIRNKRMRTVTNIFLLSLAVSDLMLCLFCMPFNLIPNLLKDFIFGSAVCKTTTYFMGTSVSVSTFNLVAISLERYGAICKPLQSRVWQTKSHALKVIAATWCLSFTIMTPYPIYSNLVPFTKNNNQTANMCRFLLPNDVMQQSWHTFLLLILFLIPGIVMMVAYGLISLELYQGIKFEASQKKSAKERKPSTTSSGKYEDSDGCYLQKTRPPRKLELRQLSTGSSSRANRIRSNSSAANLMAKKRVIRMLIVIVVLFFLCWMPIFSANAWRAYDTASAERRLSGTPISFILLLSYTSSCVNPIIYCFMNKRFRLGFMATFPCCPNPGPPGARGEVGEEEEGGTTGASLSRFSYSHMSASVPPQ

[5] = Drug metabolism in Ellegaard Gottingen minipig plasma assessed as C18d-gammaGlu-(OEG)2-Asp-Phe(4sm)-Nle-Gly-OH peptide metabolite formation at 5 nmol/kg, iv administered as single dose by LC-MS/MS analysis; format: ADME, organism-based, Sus scrofa; settings: pig, in vivo
[6] = Chemical stability of the compound in sodium phosphate buffer assessed as loss of purity 1 mM at pH 7.4 at 37 degC after 2 weeks by UHLPC-UV analysis; format: physicochemical; settings: read-out: Drug degradation
[7] = Toxicity in lean Landrace Yorkshire Duroc pig at 30 nmol/kg, sc measured up to 96 hrs post dose; format: organism-based, Sus scrofa; settings: in vivo
[8] = Chemical stability of the compound in sodium phosphate buffer assessed as loss of purity 1 mM at pH 7.4 at 37 degC after 1 week by UHLPC-UV analysis; format: physicochemical; settings: read-out: Drug degradation
[9] = Drug metabolism in sodium phosphate buffer assessed as (2R,5S,8S,14S,17S,21S,44S)-8-((1H-indol-3-yl)methyl)-2-(((S)-1-amino-1-oxo-3-phenylpropan-2-yl)(methyl)carbamoyl)-5,14-dibutyl-3-methyl-4,7,10,13,16,19,23,32,41,46-decaoxo-17-(4-(sulfomethyl)benzyl)-25,28,34,37-tetraoxa-3,6,9,12,15,18,22,31,40,45-decaazadohexacontane-1,21,44,62-tetracarboxylic acid formation at 1 mM at pH 7.4 at 37 degC after 1 to 2 weeks by UHLPC-UV analysis
Sus scrofa [10] = assay: Anti-obesity activity in lean Landrace Yorkshire Duroc pig assessed as food intake at 30 nmol/kg, sc measured at 48 to 72 hrs post dose (reference value: 1.8 to 2.1 kg); format: functional
[11] = Drug metabolism in Ellegaard Gottingen minipig plasma assessed as C18d-gammaGlu-(OEG)2-Asp-Phe(4sm)-Nle-Gly-Trp-Nle-DMeAspOH peptide metabolite formation at 5 nmol/kg, iv administered as single dose by LC-MS/MS analysis; format: ADME, organism-based, Sus scrofa; settings: pig, in vivo
[12] = Plasma concentration in lean Landrace Yorkshire Duroc pig at 30 nmol/kg, sc measured after 96 hrs post dose; format: ADME, organism-based, Sus scrofa
[13] = target: T1, Cholecystokinin receptor type A; assay: Displacement of [125I]-CCK-8 from human CCK1R expressed in human 1321N1 cell membranes after 2 hrs by SPA assay
Sus scrofa [14] = assay: Anti-obesity activity in lean Landrace Yorkshire Duroc pig assessed as food intake at 30 nmol/kg, sc measured at 72 to 96 hrs post dose (reference value: 1.8 to 2.1 kg); format: functional
[15] = Drug metabolism in Ellegaard Gottingen minipig plasma assessed as C18d-gammaGlu-(OEG)2-Asp-Phe(4sm)-OH peptide metabolite formation at 5 nmol/kg, iv administered as single dose by LC-MS/MS analysis; format: ADME, organism-based, Sus scrofa; settings: pig, in vivo
albumin = albumin (Homo sapiens, UniProt P02768); assay: Binding affinity to human serum albumin at 500 nM after 2 hrs by LC-MS analysis; format: ADME; settings: read-out: PB (converted)
Chain of albumin (P02768 whole entry): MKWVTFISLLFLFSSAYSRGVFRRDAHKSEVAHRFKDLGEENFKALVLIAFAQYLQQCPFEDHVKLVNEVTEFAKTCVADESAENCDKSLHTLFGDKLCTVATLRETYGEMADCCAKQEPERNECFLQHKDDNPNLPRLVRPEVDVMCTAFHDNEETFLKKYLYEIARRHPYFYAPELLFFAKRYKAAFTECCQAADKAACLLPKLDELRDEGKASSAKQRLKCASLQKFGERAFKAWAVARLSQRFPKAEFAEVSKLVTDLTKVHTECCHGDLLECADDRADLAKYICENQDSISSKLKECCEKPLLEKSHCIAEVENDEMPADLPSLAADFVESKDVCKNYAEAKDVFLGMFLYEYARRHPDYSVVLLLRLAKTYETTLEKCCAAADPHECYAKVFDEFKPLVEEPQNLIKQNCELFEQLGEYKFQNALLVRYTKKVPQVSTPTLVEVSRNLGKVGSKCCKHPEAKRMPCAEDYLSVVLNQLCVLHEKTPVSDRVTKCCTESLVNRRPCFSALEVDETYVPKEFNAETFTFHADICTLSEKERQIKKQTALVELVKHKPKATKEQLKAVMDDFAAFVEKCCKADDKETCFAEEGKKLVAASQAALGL

[16] = Protein binding in Ellegaard Gottingen minipig plasma at 500 nM after 2 hrs by LC-MS analysis; format: ADME, cell-free, Sus scrofa; settings: pig, read-out: PPB (converted)
Sus scrofa [17] = assay: Anti-obesity activity in lean Landrace Yorkshire Duroc pig assessed as food intake at 30 nmol/kg, sc measured at 24 to 48 hrs post dose (reference value: 1.8 to 2.1 kg); format: functional
[18] = Terminal half life in Ellegaard Gottingen minipig at 5 nmol/kg, iv by LC-MS/MS analysis; format: ADME, organism-based, Sus scrofa; settings: pig, in vivo, read-out: beta t1/2 (converted)
[19] = Drug level in sodium phosphate buffer treated with 1 mM (2R,5S,8S,14S,17S,20S,43S)-8-((1H-indol-3-yl)methyl)-2-(((S)-1-amino-1-oxo-3-phenylpropan-2-yl)(methyl)carbamoyl)-5,14-dibutyl-20-(carboxymethyl)-3-methyl-4,7,10,13,16,19,22,31,40,45-decaoxo-17-(4-(sulfomethyl)benzyl)-24,27,33,36-tetraoxa-3,6,9,12,15,18,21,30,39,44-decaazahenhexacontane-1,43,61-tricarboxylic acid assessed as compound formation at pH 7.4 at 37 degC after 1 to 2 weeks by UHLPC-UV analysis; format: physicochemical

SMILES | degraded at 168 h, 500 µM [1] [%] | remaining at 168 h, 500 µM [2] [%] | Activity (Sus scrofa [3]) [kg] | pEC50 [4] | Drug metabolism [5] | degraded at 336 h, 1000 µM [6] [%] | Activity [7] | degraded at 168 h, 1000 µM [8] [%] | Drug metabolism [9] | Activity (Sus scrofa [10]) [kg] | Drug metabolism [11] | concentration at 96 h [12] [nM] | pIC50 [13] | Activity (Sus scrofa [14]) [kg] | Drug metabolism [15] | fraction unbound at 2 h, 0.5 µM (albumin) | fraction unbound at 2 h, 0.5 µM [16] | Activity (Sus scrofa [17]) [kg] | half-life [18] [h] | Drug uptake [19]
CCCC[C@H](NC(=O)[C@H](Cc1ccc(OS(=O)(=O)O)cc1)NC(=O)[C@H](CC(=O)O)NC(=O)COCCOCCNC(=O)COCCOCCNC(=O)CC[C@H](NC(=O)CCCCCCCCCCCCCCCCC(=O)O)C(=O)O)C(=O)NCC(=O)N[C@@H](Cc1c[nH]c2ccccc12)C(=O)N[C@@H](CCCC)C(=O)N[C@@H](CC(=O)O)C(=O)N[C@@H](Cc1ccccc1)C(N)=O | 0.8 | 22 | – | – | – | – | – | – | – | – | – | – | – | – | – | – | – | – | – | –
CCCC[C@H](NC(=O)[C@H](Cc1ccc(CS(=O)(=O)O)cc1)NC(=O)[C@H](CC(=O)O)NC(=O)COCCOCCNC(=O)COCCOCCNC(=O)CC[C@H](NC(=O)CCCCCCCCCCCCCCCCC(=O)O)C(=O)O)C(=O)NCC(=O)N[C@@H](Cc1c[nH]c2ccccc12)C(=O)N[C@@H](CCCC)C(=O)N(C)[C@H](CC(=O)O)C(=O)N(C)[C@@H](Cc1ccccc1)C(N)=O ({C18 diacid-γGlu-AEEA-AEEA}-D[Phe(4-CH2SO3H)][Nle]GW[Nle][dNMeD][NMeF]-NH2) | – | – | 1 | 9.60 | Metabolite_Detected | 2.2 | Non-Toxic | 1.3 | Metabolite detected | 1.5 | Metabolite_Detected | 84.9 | 10.28 | 1.9 | Metabolite_Detected | 0.003 | 0.003 | 1.1 | – | –
CCCC[C@H](NC(=O)[C@H](Cc1ccc(CS(=O)(=O)O)cc1)NC(=O)C[C@H](NC(=O)COCCOCCNC(=O)COCCOCCNC(=O)CC[C@H](NC(=O)CCCCCCCCCCCCCCCCC(=O)O)C(=O)O)C(=O)O)C(=O)NCC(=O)N[C@@H](Cc1c[nH]c2ccccc12)C(=O)N[C@@H](CCCC)C(=O)N(C)[C@H](CC(=O)O)C(=O)N(C)[C@@H](Cc1ccccc1)C(N)=O ({C18 diacid-γGlu-AEEA-AEEA-βAsp}-[Phe(4-CH2SO3H)][Nle]GW[Nle][dNMeD][NMeF]-NH2) | – | – | 1.1 | 9.50 | – | – | Non-Toxic | – | – | 1.8 | – | 88.7 | 10.10 | 1.7 | – | – | – | 1.5 | 106 | Active
